US12552760B2, “Compounds for increasing the nicotinamide adenine dinucleotide in a subject and methods of use thereof” (The Board of Trustees of the University of Illinois, priority 2022, dated 2026)
“Also recorded” adds a separate entry of the source.

Assays:
NAMPT = target: T1, NAMPT (Homo sapiens, UniProt P43490); assay: NAMPT coupled enzyme activity assay (HTS coupled three-enzyme assay); assay type: biochemical; settings: dose-response (FIG. 1B)
T1 construct: His6 (C); made in house
Description: NAMPT coupled enzyme activity assay. The NAMPT enzyme assay is based on conditions from Burgos and Schramm and adapted to include a cycling reaction to quantitate NAD^+ production colorimetrically^1. The assay follows the NAMPT-catalyzed production of NMN from substrates NAM and PRPP by coupling NMN formation to the NMNAT reaction, which produces NAD^+ from NMN and ATP. The NAD^+ is then cycled by alcohol dehydrogenase (ADH) and diaphorase to continuously produce WST-1 formazan, which can be detected at 450 nm. Assays are performed at 25° C. in clear 384-well plates, with a final assay volume of 30 μL, and contain the following: 50 mM HEPES, pH 7.5, 5 mM MgCl2, 50 mM NaCl, 0.01% Triton-X 100, 2.5 mM ATP, 40 μM PRPP, 1-500 μM NAM, 1.5 μL WST-1 (Roche Cell Proliferation Reagent), 1 U/mL ADH, 0.083 U/mL diaphorase, 1.5% ethanol, 1% DMSO, 30 nM NAMPT, and 7.4 nM purified human NMNAT1. N-terminal His6-NMNAT1 and C-terminal His6-NAMPT were overexpressed and purified by metal chelate affinity chromatography. Following assay assembly, well signals were measured continuously at 450 nm on a Tecan Infinite M200 plate reader for 1 h with intermittent shaking. Slopes of the linear portions of the reaction progress curves were recorded and corrected for background by subtracting the average slope of control wells containing NAMPT inhibitor FK866.
A high-throughput screen (HTS) of 22,000 compounds was performed to identify those that augment NAMPT enzymatic activity^38. Screening used a coupled three-enzyme assay to detect conversion of NAM to NAD^+, as previously described by our group^37. […] We also established assays in which to assess the ability of our compounds to mitigate neuronal oxidative stress.

THP-1 human monocytes = assay: Measurement of cellular NAD^+ levels in THP-1 cell cultures (NAD/NADH-Glo); assay type: cell-based; settings: for ability to raise NAD^+ levels compared to the parent compound NP-A3-B2: initial screening, 3 μM, 24 hours, data not shown; for potency in THP-1 relative to NP-A3-B2 (cellular EC50 not quantifiable): dose response studies
Procedure: Measurement of cellular NAD^+ levels in THP-1 cell cultures. Using FK-866 and NMN as negative and positive controls, respectively, we explored a number of cell lines to select a highly reproducible model system with good dynamic range. We optimized a commercial NAD-glo assay in the THP-1 human leukemic monocyte cell line in 96-well plates, measuring NAD^+ after incubation with test compounds for 24 hours. […] All cells were grown at 37° C., under 5% CO2 in a humidified incubator. Low passage THP-1 cells (37,500 cells/well) were seeded in 96-well plates and incubated at 37° C. and 5% CO2 for 1½ h prior to a 24 h treatment. All compounds were dissolved in DMSO, and final DMSO concentrations never exceeded 1%. The NAD^+ levels in the cells are measured using the NAD^+/NADH-Glo™ assay (Promega). The assays were performed in triplicate for each concentration and the IC50 values were determined from non-linear regression analysis of the dose-response curve generated in GraphPad Prism 9.

[1] = test system: HT-22 mouse hippocampal cell line; assay: TNFα-induced ROS in HT-22 cells (MitoSOX); assay type: cell-based; settings: for effect on ROS levels across tested concentrations: screened against 1 μg/mL TNFα (FIG. 2A)
Procedure: (§1) Cell Culture and Drug Treatments. HT22 mouse hippocampal neuronal cells (a gift from the Salk Institute) were grown in Dulbecco's modified Eagle's medium (DMEM) containing 10% FBS and 1× Antibiotic-Antimycotic (ABAM). Cells were maintained in a humidified 5% CO2 atmosphere incubator at 37° C., and were passaged when 60-80% confluent (1-2 days) by removing media, rinsing with phosphate buffered saline (PBS), and enzymatically detaching with trypsin solution. New culture dishes were seeded with ¼ to ½ the cells from the previous dish.
All assays were performed using cells with passage number 12-50. The inner 60 wells of black-walled (Corning®3603/3604) 96-well plates were treated with poly D-lysine (30 μL/well) making sure to cover the entire well surface for 15-30 seconds and then washed thoroughly with sterile water (3×−200 μL/well). TNFα stock solutions (10 μg/mL, PBS (0.1% BSA)) were made, aliquoted, and stored at −80° C. Glutamate stock solutions were made fresh immediately before assay. All compound stock solutions (10 mM, DMSO) were made and stored at −20° C.
Cells were plated at a seeding density of 3,000-5,000 cells/well and allowed to incubate overnight. The next day (18-24 hours later) cells were pretreated with N-PAMs, carefully ensuring equivalent vehicle (DMSO/PBS) composition in each well. After 18-24 hours, stressors (glutamate or TNFα) were treated. Live cell count, ROS level, and total cell count were then assessed after another 18-24 hours.
ROS Detection. ROS levels were quantified using MitoSOX Red Mitochondrial Superoxide Indicator (Invitrogen). At treatment endpoint, the cell culture media was removed and replaced with phosphate buffered saline (PBS) containing 1 μM calcein-AM, 5 μM MitoSOX, and 10 μg/mL Hoechst dyes. Cells were incubated for 30-45 minutes and then dye-containing PBS was dumped and replaced with 100 μL/well fresh PBS. The plate was immediately analyzed in the Celigo Imaging Cytometer using the Live-Dead-Total protocol, where MitoSOX was used in place of propidium iodide. The cell counts and fluorescence intensities for living (calcein), MitoSOX-stained, and total (Hoechst) were acquired. MitoSOX average mean fluorescence intensity (“dead” average mean intensity) was used to quantify mitochondrial ROS. All readouts used were transformed into fold-change over vehicle treatment for visualization.
We set out to design assays representing the connection between OS and the multifaceted pathophysiology of aging and ND. We assessed multiple treatments in several cell lines to model OS induced by diverse factors such as neuroinflammatory signaling, neurotransmitter signaling, and direct oxidant species. Assay development highlighted the neuronal HT-22 mouse hippocampal cell line as most robust for these purpose s, and inflammatory cytokine TNFα as being a reliable and disease-relevant method for inducing ROS generation.

GMC101 worms = settings: 1 mM, 1-8 days; Sorrentino, V. et al. 2017; cited from earlier work
APPSwe/PSEN1dE9 mice = settings: 400 mg/kg/d (p.o.) 10 weeks; Sorrentino, V. et al. 2017; cited from earlier work
[2] = test system: Tg2576/PGC-1α knockout mice; settings: 250 mg/kg/d (p.o) 3 months; Gong, B. et al. 2013; cited from earlier work
[3] = test system: 3xTgAD, and 3xTgAD/Polβ^+/− mice; settings: 12 mM in drinking water p.o. 6 months; Hou, Y. et al. 2018; cited from earlier work
[4] = test system: hSOD1^G93A mouse derived astrocytes and motor neurons; settings: NR or NMN, 5 mM, 24-72 h; Harlan, B. A. et al. 2019; cited from earlier work
Csb^m/m mice = settings: 500 mg/kg/d (i.p.) 1 week; Scheibye-Knudsen, M. et al. 2014; cited from earlier work
[5] = test system: HT-22 mouse hippocampal cell line; assay: Glutamate-induced ROS in HT-22 cells (MitoSOX); assay type: cell-based; settings: 75 mM glutamate
Procedure: as §1
All assays were performed using cells with passage number 12-50. […]
Cells were plated at a seeding density of 3,000-5,000 cells/well and allowed to incubate overnight. […] Live cell count, ROS level, and total cell count were then assessed after another 18-24 hours.
ROS Detection. ROS levels were quantified using MitoSOX Red Mitochondrial Superoxide Indicator (Invitrogen). […] The plate was immediately analyzed in the Celigo Imaging Cytometer using the Live-Dead-Total protocol, where MitoSOX was used in place of propidium iodide. The cell counts and fluorescence intensities for living (calcein), MitoSOX-stained, and total (Hoechst) were acquired. MitoSOX average mean fluorescence intensity (“dead” average mean intensity) was used to quantify mitochondrial ROS. All readouts used were transformed into fold-change over vehicle treatment for visualization.

[6] = dose response study, 30 μM (FIG. 1A)

T1 sequence (P43490 whole entry): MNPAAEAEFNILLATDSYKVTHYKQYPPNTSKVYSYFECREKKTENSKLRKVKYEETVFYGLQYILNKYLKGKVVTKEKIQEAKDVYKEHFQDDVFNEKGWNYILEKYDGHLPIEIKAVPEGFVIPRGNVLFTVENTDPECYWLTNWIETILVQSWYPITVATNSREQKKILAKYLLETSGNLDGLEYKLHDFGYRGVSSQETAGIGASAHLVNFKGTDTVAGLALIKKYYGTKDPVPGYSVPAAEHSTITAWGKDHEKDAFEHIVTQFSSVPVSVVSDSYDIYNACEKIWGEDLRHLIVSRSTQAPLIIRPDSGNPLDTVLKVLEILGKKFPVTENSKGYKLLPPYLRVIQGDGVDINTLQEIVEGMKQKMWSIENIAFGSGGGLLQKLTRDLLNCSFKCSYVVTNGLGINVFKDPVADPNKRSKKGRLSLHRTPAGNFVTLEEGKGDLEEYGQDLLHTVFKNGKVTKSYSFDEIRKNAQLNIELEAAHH

SMILES: COc1ccc(CN(CCC2(C(C)C)CCOC(C)(C)C2)C(=O)c2cnc[nH]2)cc1 (stereo not drawn) [JGB-1-147, N-(2-(4-isopropyl-2,2-dimethyltetrahydro-2H-pyran-4-yl)ethyl)-N-(4-methoxybenzyl)-1H-imidazole-5-carboxamide]
- IC50 (NAMPT; NAMPT inhibition): 5.32 µM
- Amax (NAMPT): 0.25 fold
- effect on NAMPT activity (NAMPT): inhibitory activity; also recorded: inhibits NAMPT

SMILES: CC(C)C1(CCN(Cc2ccc3[nH]ccc3c2)C(=O)c2ccco2)CCOC(C)(C)C1 (stereo not drawn) [JGB-1-134, N-((1H-indol-5-yl)methyl)-N-(2-(4-isopropyl-2,2-dimethyltetrahydro-2H-pyran-4-yl)ethyl)furan-2-carboxamide]
- ability to raise NAD^+ levels compared to the parent compound NP-A3-B2 (THP-1 human monocytes): significantly greater ability to raise NAD^+ levels
- effect on ROS levels at 40 μM ([1]; 1 μg/mL TNFα, 40 μM compound (FIG. 2A)): trended toward ROS mitigation
- effect on ROS levels across tested concentrations [1]: little effect until 40 μM

SMILES: NC(=O)c1ccc[n+]([C@@H]2O[C@H](CO)[C@@H](O)[C@H]2O)c1 [NR]
- health- and lifespan of worms (GMC101 worms): Increased health-
- proteotoxicity and aggregation of Aβ (GMC101 worms): Reduced
- Aβ aggregation (APPSwe/PSEN1dE9 mice): Reduced Aβ
- impaired memory (APPSwe/PSEN1dE9 mice): Enhanced
- mitochondrial function (APPSwe/PSEN1dE9 mice): Improved
- NAD^+ levels and PGC-1α expression [2]: Increased NAD^+
- cognitive (novel object recognition) performance [2]: Improved
- synaptic plasticity [2]: Improved synaptic
- NAD^+/NADH ratio [3]: Increased
- learning, memory, motor function, and anxiety [3]: Improved
- neurogenesis [3]: Increased
- neuroinflammation [3]: Decreased
- p-Tau levels [3]: Decreased p-Tau
- synaptic plasticity [3]: Restored synaptic
- Nrf2 mediated Antioxidant Response Element activation [4]: Increased Nrf2
- cerebellar NAD^+ ATP, mitochondrial function (Csb^m/m mice): Rescued
- gene profile associated with oxidative stress, DNA repair, mitochondrial function (Csb^m/m mice): Normalized gene

SMILES: COc1ccc(CN(CCC2(C(C)C)CCOC(C)(C)C2)C(=O)c2ccsc2)cc1 (stereo not drawn) [JGB-1-127, N-(2-(4-isopropyl-2,2-dimethyltetrahydro-2H-pyran-4-yl)ethyl)-N-(4-methoxybenzyl)thiophene-3-carboxamide]
- potency in THP-1 relative to NP-A3-B2 (cellular EC50 not quantifiable) (THP-1 human monocytes): improved potency
- ability to raise NAD^+ levels compared to the parent compound NP-A3-B2 (THP-1 human monocytes): significantly greater ability to raise NAD^+ levels

SMILES: CC(C)C1(CCN(Cc2ccc(N(C)C)cc2)C(=O)c2ccco2)CCOC(C)(C)C1 (stereo not drawn) [JGB-1-155, N-(4-(dimethylamino)benzyl)-N-(2-(4-isopropyl-2,2-dimethyltetrahydro-2H-pyran-4-yl)ethyl)furan-2-carboxamide]
- EC50 (NAMPT; NAMPT activation): 3.41 µM
- activity in THP-1 (THP-1 human monocytes; SAR summary (FIGS. 4 and 5)): improved activity
- potency in THP-1 relative to NP-A3-B2 (cellular EC50 not quantifiable) (THP-1 human monocytes): improved potency
- NAD^+ fold over control (THP-1 human monocytes; [6]): 1.88 fold
- increase in NAD^+ over control (THP-1 human monocytes; [6]): 88%
- ability to raise NAD^+ levels compared to the parent compound NP-A3-B2 (THP-1 human monocytes): significantly greater ability to raise NAD^+ levels
- ROS attenuation relative to other analogs and the hit ([1]; 1 μg/mL TNFα (FIG. 2A)): outperformed all other analogs and the hit in ROS attenuation
- activity in HT-22 ([1]; SAR summary, over the 4-methoxy compounds (FIGS. 4 and 5)): improved activity
- reduction of TNFα-induced ROS ([1]; further replicates, 20 μM and 40 μM (FIG. 2B)): highly significant reduction of TNFα-induced ROS
- effect on ROS levels across tested concentrations [1]: dose-dependent downward trend in ROS levels
- ROS-reducing activity against glutamate insult [5]: dose-dependent ROS-reducing activity
- ROS levels relative to vehicle treated control ([5]; 20 μM and 40 μM (FIG. 2D)): decreased ROS levels below that of the vehicle treated control

SMILES: O=C(NCc1ccncc1)Nc1ccc(S(=O)(=O)N2CC3CCC(C2)O3)cc1 [SBI-797812]
- effect on ROS levels across tested concentrations [1]: no significant effects on ROS at any concentration tested

SMILES: COc1ccc(CN(CCC2(C(C)C)CCOC(C)(C)C2)C(=O)c2cccs2)cc1 (stereo not drawn) [JGB-1-137, N-(2-(4-isopropyl-2,2-dimethyltetrahydro-2H-pyran-4-yl)ethyl)-N-(4-methoxybenzyl)thiophene-2-carboxamide]
- NAD^+ production in THP-1 (THP-1 human monocytes; SAR summary, thiophene replacement of the R^2 furan (FIGS. 4 and 5)): significantly improved NAD^+ production
- potency in THP-1 relative to NP-A3-B2 (cellular EC50 not quantifiable) (THP-1 human monocytes): improved potency
- ability to raise NAD^+ levels compared to the parent compound NP-A3-B2 (THP-1 human monocytes): significantly greater ability to raise NAD^+ levels
- effect on ROS levels across tested concentrations [1]: dose-dependent downward trend in ROS levels
